In US9458181B2, “Cathepsin cysteine protease inhibitors” (Merck Sharp & Dohme Corp., priority 2013, dated 2016):

Key:
[1] = target: T1, human cathepsin F (Homo sapiens, UniProt Q9UBX1); test: Cathepsin F assay (hCat F); format: biochemical; conditions: human cathepsin F 10 nM, Z-Phe-Arg-AMC 8 μM, pH 5.5, 15 min preincubation; read-out: hCat F IP
T1 sequence (Q9UBX1 271-484): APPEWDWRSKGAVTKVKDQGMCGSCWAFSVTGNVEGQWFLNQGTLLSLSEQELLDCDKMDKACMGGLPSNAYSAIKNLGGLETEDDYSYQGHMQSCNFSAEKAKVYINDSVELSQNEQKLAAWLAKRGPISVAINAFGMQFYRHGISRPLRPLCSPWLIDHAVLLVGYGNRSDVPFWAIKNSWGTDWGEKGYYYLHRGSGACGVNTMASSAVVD
Experimental: Cathepsin F assay (hCat F)
(§1) Serial dilutions (⅓) from 500 μM down to 0.025 μM of test compounds were prepared in dimethyl sulfoxide (DMSO). Then 0.5 μL of DMSO from each dilution were added to 18.75 μL of assay buffer (MES, 50 mM (pH 5.5); EDTA, 2.5 mM; DTT, 2.5 mM and 10% DMSO) containing human cathepsin F (10 nM) in assay buffer solution. The assay solutions were mixed for 5-10 seconds on a shaker plate and incubated for 15 minutes at room temperature. Z-Phe-Arg-AMC (8 μM) in 6.25 μL of assay buffer was added to the assay solutions. Hydrolysis of the coumarin leaving group (AMC) was followed by spectrofluorometry (Exp, =360 nm; EmX=460 nm) for 20 minutes. Percent of inhibition were calculated by fitting experimental values to standard mathematical model for dose response curve.

[2] = target: human cathepsin K (UniProt P43236); test: Cathepsin K Assay (hrbCat K); format: biochemical; conditions: human cathepsin K 0.4 nM, Z-Leu-Arg-AMC 8 μM, pH 5.5, 15 min preincubation; read-out: hrbCat K IP
Experimental: Cathepsin K Assay (hrbCat K)
as §1, with “K (0.4” for “F (10”, “Z-Leu-Arg-AMC” for “Z-Phe-Arg-AMC”, “(Exλ=360” for “(Exp, =360”, “Emλ=460” for “EmX=460”, “30” for “20”

IC50 [1]	IC50 [2]	SMILES
1210 nM	1.38 nM	COC(c1ccccc1)(c1nc(-c2ccc(N3CCS(=O)(=O)CC3)cc2)c([C@@H]2CCCC[C@H]2C(=O)NC2(C#N)CC2)o1)C(F)(F)F (mixture of isomers) [Example 116, (1R,2R)-N-(1-cyanocyclopropyl)-2-(4-(4-(1,1-dioxidothiomorpholino)phenyl)-2-((R and S)-2,2,2-trifluoro-1-methoxy-1-phenylethyl)oxazol-5-yl)cyclohexanecarboxamide]
2240 nM	1.46 nM	COC1CC(c2nc(-c3ccc(N4CCS(=O)(=O)CC4)cc3)c([C@@H]3CCCC[C@H]3C(=O)NC3(C#N)CC3)o2)C1 (mixture of isomers) [Example 117, (1R,2R)-N-(1-cyanocyclopropyl)-2-(4-(4-(1,1-dioxidothiomorpholino)phenyl)-2-((1R,3R and 1S,3S)-3-methoxycyclobutyl)oxazol-5-yl)cyclohexanecarboxamide]
767 nM	0.85 nM	N#CC1(NC(=O)[C@@H]2CCCC[C@H]2c2oc(C3CC4CC4C3)nc2-c2ccc(N3CCS(=O)(=O)CC3)cc2)CC1 (mixture of isomers) [Example 118, (1R,2R)-2-(2-((1R,3R,5S and 1R,3S,5S)-bicyclo[3.1.0]hexan-3-yl)-4-(4-(1,1-dioxidothiomorpholino)phenyl)oxazol-5-yl)-N-(1-cyanocyclopropyl) cyclohexanecarboxamide]
151 nM	12.4 nM	N#CC1(NC(=O)[C@@H]2CC(C(F)F)CC[C@H]2c2oc(-c3ccc(F)cc3)nc2-c2ccc(N3CCS(=O)(=O)CC3)cc2)CC1 (mixture of isomers) [Example 138, (1R,2R,5R and 1R,2R,5S)-N-(1-cyanocyclopropyl)-5-(difluoromethyl)-2-(4-(4-(1,1-dioxidothiomorpholino)phenyl)-2-(4-fluorophenyl)oxazol-5-yl)cyclohexanecarboxamide]
53 nM	1.3 nM	N#CC(NC(=O)[C@@H]1CCCC[C@H]1c1oc(-c2ccc(F)cc2)nc1-c1ccc(N2CCS(=O)(=O)CC2)cc1)C(F)(F)F (mixture of isomers) [Example 149, (1R,2R)-N-((S and R)-1-cyano-2,2,2-trifluoroethyl)-2-(4-(4-(1,1-dioxidothiomorpholino)phenyl)-2-(4-fluorophenyl)oxazol-5-yl)cyclohexanecarboxamide]
1620 nM	9.56 nM	N#CC1(NC(=O)[C@@H]2CC3CC3C[C@H]2c2oc(-c3ccc(F)cn3)nc2-c2ccc(N3CCS(=O)(=O)CC3)cc2)CC1 (single isomer, unassigned) [Example 8, (1S,3R,4R,6R or 1R,3R,4R,6S)-N-(1-Cyanocyclopropyl)-4-(4-(4-(1,1-dioxidothiomorpholino)phenyl)-2-(5-fluoropyridin-2-yl)oxazol-5-yl)bicyclo[4.1.0]heptane-3-carboxamidc]
1180 nM	3.54 nM	N#CC1(NC(=O)[C@@H]2CC3CC3C[C@H]2c2oc(-c3ccc(F)cn3)nc2-c2ccc(N3CCS(=O)(=O)CC3)cc2)CC1 (single isomer, unassigned) [Example 9, (1R,3R,4R,6S or 1S,3R,4R,6R)-N-(1-cyanocyclopropyl)-4-(4-(4-(1,1-dioxidothiomorpholino)phenyl)-2-(5-fluoropyridin-2-yl)oxazol-5-yl)bicyclo[4.1.0]heptane-3-carboxamide]
230 nM	0.66 nM	CC(C#N)NC(=O)[C@@H]1CCCC[C@H]1c1oc(-c2ccc(F)cc2F)nc1-c1ccc(N2CCS(=O)(=O)CC2)cc1 (single isomer, unassigned) [Example 46, (1R,2R)-N-((S or R)-1-cyanoethyl)-2-(2-(2,4-difluorophenyl)-4-(4-(1,1-dioxidothiomorpholino)phenyl)oxazol-5-yl)cyclohexanecarboxamide]
≥ 10000 nM	24.1 nM	CC(C#N)NC(=O)[C@@H]1CCCC[C@H]1c1oc(-c2ccc(F)cc2)nc1-c1ccc(N2CCS(=O)(=O)CC2)cc1 (single isomer, unassigned) [Example 121, (1R,2R)-N-((R or S)-1-cyanoethyl)-2-(4-(4-(1,1-dioxidothiomorpholino)phenyl)-2-(4-fluorophenyl)oxazol-5-yl)cyclohexanecarboxamide]
198 nM	0.8 nM	CC(C#N)NC(=O)[C@@H]1CCCC[C@H]1c1oc(-c2ccc(F)cc2)nc1-c1ccc(N2CCS(=O)(=O)CC2)cc1 (single isomer, unassigned) [Example 122, (1R,2R)-N-((S or R)-1-cyanoethyl)-2-(4-(4-(1,1-dioxidothiomorpholino)phenyl)-2-(4-fluorophenyl)oxazol-5-yl)cyclohexanecarboxamide]
472 nM	2.13 nM	CC(C)C(C#N)NC(=O)[C@@H]1CCCC[C@H]1c1oc(-c2ccc(F)cc2)nc1-c1ccc(N2CCS(=O)(=O)CC2)cc1 (single isomer, unassigned) [Example 123, (1R,2R)-N-((S or R)-1-cyano-2-methylpropyl)-2-(4-(4-(1,1-dioxidothiomorpholino)phenyl)-2-(4-fluorophenyl)oxazol-5-yl)cyclohexanecarboxamide]
≥ 10000 nM	1080 nM	CC(C)C(C#N)NC(=O)[C@@H]1CCCC[C@H]1c1oc(-c2ccc(F)cc2)nc1-c1ccc(N2CCS(=O)(=O)CC2)cc1 (single isomer, unassigned) [Example 124, (1R,2R)-N-((R or S)-1-cyano-2-methylpropyl)-2-(4-(4-(1,1-dioxidothiomorpholino)phenyl)-2-(4-fluorophenyl)oxazol-5-yl)cyclohexanecarboxamide]
104 nM	0.69 nM	CCC(C#N)NC(=O)[C@@H]1CCCC[C@H]1c1oc(-c2ccc(F)cc2)nc1-c1ccc(N2CCS(=O)(=O)CC2)cc1 (single isomer, unassigned) [Example 125, (1R,2R)-N-((S or R)-1-cyanopropyl)-2-(4-(4-(1,1-dioxidothiomorpholino)phenyl)-2-(4-fluorophenyl)oxazol-5-yl)cyclohexanecarboxamide]
9020 nM	14.6 nM	CCC(C#N)NC(=O)[C@@H]1CCCC[C@H]1c1oc(-c2ccc(F)cc2)nc1-c1ccc(N2CCS(=O)(=O)CC2)cc1 (single isomer, unassigned) [Example 126, (1R,2R)-N-((R or S)-1-cyanopropyl)-2-(4-(4-(1,1-dioxidothiomorpholino)phenyl)-2-(4-fluorophenyl)oxazol-5-yl)cyclohexanecarboxamide]
14 nM	0.65 nM	N#CC(CC(F)(F)F)NC(=O)[C@@H]1CCCC[C@H]1c1oc(-c2ccc(F)cc2)nc1-c1ccc(N2CCS(=O)(=O)CC2)cc1 (single isomer, unassigned) [Example 131, (1R,2R)-N-((R or S)-1-cyano-3,3,3-trifluoropropyl)-2-(4-(4-(1,1-dioxidothiomorpholino)phenyl)-2-(4-fluorophenyl)oxazol-5-yl)cyclohexanecarboxamide]
670 nM	1.77 nM	N#CC(CC(F)(F)F)NC(=O)[C@@H]1CCCC[C@H]1c1oc(-c2ccc(F)cc2)nc1-c1ccc(N2CCS(=O)(=O)CC2)cc1 (single isomer, unassigned) [Example 132, (1R,2R)-N-((S or R)-1-cyano-3,3,3-trifluoropropyl)-2-(4-(4-(1,1-dioxidothiomorpholino)phenyl)-2-(4-fluorophenyl)oxazol-5-yl)cyclohexanecarboxamide]
3140 nM	2.53 nM	CC1CC1(C#N)NC(=O)[C@@H]1CCCC[C@H]1c1oc(-c2ccc(F)cc2)nc1-c1ccc(N2CCS(=O)(=O)CC2)cc1 (single isomer, unassigned) [Example 133, (1R,2R)-N-((2R or 2S)-1-cyano-2-methylcyclopropyl)-2-(4-(4-(1,1-dioxidothiomorpholino)phenyl)-2-(4-fluorophenyl)oxazol-5-yl)cyclohexanecarboxamide]
≥ 10000 nM	2900 nM	CC1CC1(C#N)NC(=O)[C@@H]1CCCC[C@H]1c1oc(-c2ccc(F)cc2)nc1-c1ccc(N2CCS(=O)(=O)CC2)cc1 (single isomer, unassigned) [Example 134, (1R,2R)-N-((2S or 2R)-1-cyano-2-methylcyclopropyl)-2-(4-(4-(1,1-dioxidothiomorpholino)phenyl)-2-(4-fluorophenyl)oxazol-5-yl)cyclohexanecarboxamide]
